Data set [1] concerns the target T1, PPM1G (Homo sapiens, UniProt O15355).
T1 sequence (O15355 1-546): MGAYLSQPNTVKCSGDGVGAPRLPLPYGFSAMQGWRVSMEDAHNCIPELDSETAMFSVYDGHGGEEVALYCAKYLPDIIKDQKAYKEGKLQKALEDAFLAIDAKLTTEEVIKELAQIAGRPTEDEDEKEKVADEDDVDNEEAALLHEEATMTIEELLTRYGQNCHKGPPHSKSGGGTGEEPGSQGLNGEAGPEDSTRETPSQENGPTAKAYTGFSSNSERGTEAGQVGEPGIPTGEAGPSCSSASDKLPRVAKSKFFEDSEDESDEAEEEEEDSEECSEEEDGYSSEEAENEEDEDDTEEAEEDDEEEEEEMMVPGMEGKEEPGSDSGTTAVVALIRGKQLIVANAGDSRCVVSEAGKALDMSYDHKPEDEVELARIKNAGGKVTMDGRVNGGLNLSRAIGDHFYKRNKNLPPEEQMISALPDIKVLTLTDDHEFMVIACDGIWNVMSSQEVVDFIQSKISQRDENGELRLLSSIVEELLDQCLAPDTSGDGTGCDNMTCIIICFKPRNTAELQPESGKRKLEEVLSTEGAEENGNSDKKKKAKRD
Put plainly: pNPP hydrolysis phosphatase assay (selectivity panel). It is filed as biochemical. The conditions noted are these: pNPP as substrate.

In data set [2] the target is T2, PHLPP2 (Homo sapiens, UniProt Q6ZVD8).
T2 sequence (Q6ZVD8 1-1323): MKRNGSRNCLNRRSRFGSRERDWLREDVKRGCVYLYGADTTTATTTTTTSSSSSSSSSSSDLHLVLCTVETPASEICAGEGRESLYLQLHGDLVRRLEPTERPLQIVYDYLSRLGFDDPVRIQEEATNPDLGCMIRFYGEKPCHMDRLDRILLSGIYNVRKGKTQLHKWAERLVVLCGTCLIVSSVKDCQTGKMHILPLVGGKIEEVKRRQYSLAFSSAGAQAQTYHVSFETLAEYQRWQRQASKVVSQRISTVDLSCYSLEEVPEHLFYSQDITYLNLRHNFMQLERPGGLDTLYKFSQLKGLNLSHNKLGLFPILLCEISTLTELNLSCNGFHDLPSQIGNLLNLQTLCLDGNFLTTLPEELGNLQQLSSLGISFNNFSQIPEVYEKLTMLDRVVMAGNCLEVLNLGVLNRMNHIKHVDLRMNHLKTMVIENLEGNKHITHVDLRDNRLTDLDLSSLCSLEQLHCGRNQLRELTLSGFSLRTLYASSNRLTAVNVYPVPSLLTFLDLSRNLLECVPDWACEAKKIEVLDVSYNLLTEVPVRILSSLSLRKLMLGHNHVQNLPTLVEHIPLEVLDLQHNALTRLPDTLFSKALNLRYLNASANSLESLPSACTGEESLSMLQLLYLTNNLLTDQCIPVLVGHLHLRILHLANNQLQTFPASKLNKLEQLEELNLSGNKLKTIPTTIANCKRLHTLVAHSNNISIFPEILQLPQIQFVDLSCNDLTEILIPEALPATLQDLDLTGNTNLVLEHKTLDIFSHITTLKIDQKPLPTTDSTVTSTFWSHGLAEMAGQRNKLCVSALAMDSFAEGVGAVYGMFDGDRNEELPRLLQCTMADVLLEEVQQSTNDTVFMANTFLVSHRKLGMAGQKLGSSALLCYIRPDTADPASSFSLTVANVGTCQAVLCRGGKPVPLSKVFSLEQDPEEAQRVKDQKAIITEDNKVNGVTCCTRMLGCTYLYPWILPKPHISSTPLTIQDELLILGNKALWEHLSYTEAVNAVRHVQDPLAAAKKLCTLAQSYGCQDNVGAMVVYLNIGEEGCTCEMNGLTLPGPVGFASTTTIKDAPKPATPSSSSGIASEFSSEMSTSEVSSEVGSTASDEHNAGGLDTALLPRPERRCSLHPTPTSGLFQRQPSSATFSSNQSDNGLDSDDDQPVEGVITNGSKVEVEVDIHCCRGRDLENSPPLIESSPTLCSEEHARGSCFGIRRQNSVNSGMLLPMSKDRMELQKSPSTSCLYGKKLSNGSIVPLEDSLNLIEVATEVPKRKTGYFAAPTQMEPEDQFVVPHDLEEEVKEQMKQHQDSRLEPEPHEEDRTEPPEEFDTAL
Described as above. The format is biochemical. The settings on record: pNPP as substrate.

The target of data set [3] is T3, PPM1B (Homo sapiens, UniProt O75688).
T3 construct: inferred from pET-28a vector and Ni-NTA purification; made in house; host or cells: Escherichia coli BL21
T3 sequence (O75688 1-479): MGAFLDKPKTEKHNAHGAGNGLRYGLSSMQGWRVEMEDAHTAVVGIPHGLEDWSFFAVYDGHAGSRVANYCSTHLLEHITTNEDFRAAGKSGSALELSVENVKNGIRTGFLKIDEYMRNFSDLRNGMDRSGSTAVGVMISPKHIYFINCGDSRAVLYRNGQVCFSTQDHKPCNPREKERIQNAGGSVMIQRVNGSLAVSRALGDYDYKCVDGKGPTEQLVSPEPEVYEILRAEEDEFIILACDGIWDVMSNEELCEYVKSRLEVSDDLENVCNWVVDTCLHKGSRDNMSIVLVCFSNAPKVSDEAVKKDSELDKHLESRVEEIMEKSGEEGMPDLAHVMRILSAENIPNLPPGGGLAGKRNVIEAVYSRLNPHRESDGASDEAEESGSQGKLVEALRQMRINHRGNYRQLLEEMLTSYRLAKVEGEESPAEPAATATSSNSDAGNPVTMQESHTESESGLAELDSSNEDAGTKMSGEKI
Put plainly: Fluorescence quenching assay (fluorescence titration). The format is binding. The settings on record: PPM1B 8 μM, 25°C, excitation 280 nm, emission 332 nm; read-out: dissociation constant Kd. As for the experimental part:
The interaction between PPM1B recombinant proteins and compound HN252 was determined by fluorescence titration as previously described. ^20 PPM1B proteins were dialysed against PBS and incubated with different concentrations of HN252. The fluorescent quenching was conducted at 25°C, and fluorescence spectra were recorded by Cytation 5 Multi‐Mode Plate Reader (BioTek) using excitation at 280 nm and emission at 332 nm. The dissociation constant (Kd) of HN252 to PPM1B was calculated as previously described. ^20

The target of data set [4] is T4, PPM1K (Homo sapiens, UniProt Q8N3J5).
T4 sequence (Q8N3J5 30-372): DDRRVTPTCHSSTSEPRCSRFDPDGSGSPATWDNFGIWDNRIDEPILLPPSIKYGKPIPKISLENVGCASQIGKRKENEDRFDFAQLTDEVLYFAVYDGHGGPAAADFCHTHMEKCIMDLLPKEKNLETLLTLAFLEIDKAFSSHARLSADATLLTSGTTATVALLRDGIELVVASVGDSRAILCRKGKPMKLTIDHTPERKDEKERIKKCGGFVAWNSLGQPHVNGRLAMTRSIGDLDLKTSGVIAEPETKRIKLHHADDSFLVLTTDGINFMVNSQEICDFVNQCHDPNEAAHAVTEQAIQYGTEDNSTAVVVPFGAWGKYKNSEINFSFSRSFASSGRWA
Description: pNPP hydrolysis phosphatase assay (selectivity panel). It is filed as biochemical. The settings on record: pNPP as substrate.

Data set [5] can be described thus: Cytotoxicity. The conditions noted are these: low micromolar range; data not shown. The format is cell-based.

We go through one compound from article PMC7701510, “Identification of HN252 as a potent inhibitor of protein phosphatase PPM1B” (Journal of Cellular and Molecular Medicine, 2020).

The IC50 is the concentration at which inhibition is half-maximal. Low values mean inhibition by little substance, high ones a need for much substance. Broadly, the Kd is the concentration at which binding is half-saturated.

Regarding `Nc1cc(-c2ccc(-c3ccc(O)c(O)c3)cc2)ccc1C(=O)O` [HN252], the IC50 in data set [1] amounted to 32.6 ± 5.54 µM; in data set [2] it was 20.9 ± 1.74 µM; in data set [4] it was 27.4 ± 3.92 µM. Also, the Kd in data set [3] amounted to 42.3 ± 6.47 µM. In data set [5], the cytotoxicity result was “no detectable cytotoxicity”.
